# According to patent US9802937B2, “Substituted pyrazolo{4,3-D}pyrimidines as kinase inhibitors” (ORIGENIS GMBH, priority 2011, dated 2017):
# pKi: −log10 of the molar value.
# Target: T1, SYK kinase (Homo sapiens, UniProt P43405)
# T1 construct: purchased Invitrogen, Carlsbad
# Assay: SYK Assay (OMNIA KINASE ASSAY, SOX peptide fluorescence)
# Assay type: biochemical
# Details: apparent Ki calculated from the IC50 using the Cheng-Prusoff equation; 1 mM ATP, 30° C.; read-out: SYK Activities: Ki
# Description: In the assay OMNIA® KINASE ASSAY by Invitrogen Corporation (Carlsbad) the effect of invention of a compound on the phosphorylation is determined by measurement of fluorescence intensity of a chelation-enhanced fluorophore called SOX. Upon phosphorylation of the peptide by the kinase of interest, Mg2+ is chelated to form a bridge between the SOX moiety and the phosphate group that is transferred to the specific tyrosine on the peptide. The fluorescence intensity is directly proportional to the amount of peptide phosphorylation.
# To the wells of an 384 well small volume plate (Greiner, Frickenhausen) are added (i) the compound under test in 5% DMSO/distilled water (2 μl), (ii) 16 μl of the master mix containing ATP, DTT, Kinase Reaction Buffer, Omina Peptide Substrate Tyr 7 resulting in a final concentration of 1 mM ATP, 0.2 mM DTT and 10 μM Peptide Substrate.
# The Master Mix and the assay plate was incubated to reaction temperature before the measurement (30° C.). The reaction was started with addition of (iii) 2 μl 4 μg/ml SYK kinase (Invitrogen, Carlsbad). During measurement fluorescence intensitiy readings were collected using a TECAN M1000 at a wavelength of λex 360/λem 485 nm every 30 s for 30 minutes. The reaction velocity was plotted versus the inhibitor concentration to determine the […] using XLFit 5.0 (IDBS, Guildford) to fit to a sigmoidal dose response curve, and the apparent Ki values were calculated from the IC50 using the Cheng-Prusoff equation (Cheng, Y.; Prusoff, W. H. Biochem. Pharmacol. 22, 3099-3108, 1973).
row,pKi,Structure (SMILES)
1,7.00 to 8.00,"COc1ccc(Nc2nc(-c3nc4ccccc4[nH]3)nc3cn[nH]c23)cc1OC [Example #129, 5-(1H-benzo[d]imidazol-2-yl)-N-(3,4-dimethoxyphenyl)-1H-pyrazolo[4,3-d]pyrimidin-7-amine]"
2,6.00 to 7.00,"COc1ccc(Nc2nc(-c3nc4ccccc4n3C)nc3cn[nH]c23)cc1OC [Example #130, N-(3,4-dimethoxyphenyl)-5-(1-methyl-1H-benzo[d]imidazol-2-yl)-1H-pyrazolo[4,3-d]pyrimidin-7-amine]"
3,6.00 to 7.00,"Cc1cccc(NC(=O)Nc2ccc(Nc3nc(-c4ccsc4)nc4cn[nH]c34)cc2)c1 [Example #133, 1-(4-((5-(thiophen-3-yl)-1H-pyrazolo[4,3-d]pyrimidin-7-yl)amino)phenyl)-3-(m-tolyl)urea]"
4,7.00 to 8.00,"CN1CCN(c2ccc(Nc3nc(-c4ncc[nH]4)nc4cn[nH]c34)cc2)CC1 [Example #141, 5-(1H-imidazol-2-yl)-N-(4-(4-methylpiperazin-1-yl)phenyl)-1H-pyrazolo[4,3-d]pyrimidin-7-amine]"
5,6.00 to 7.00,"CC1(C)CNc2cc(Nc3nc(-c4ccsc4)nc4cn[nH]c34)ccc2S1 [Example #148, 2,2-dimethyl-N-(5-(thiophen-3-yl)-1H-pyrazolo[4,3-d]pyrimidin-7-yl)-3,4-dihydro-2H-benzo[b][1,4]thiazin-6-amine]"
6,> 8.00,"CN1CCN(c2ccc(Nc3nc(-c4cccc(-c5nn[nH]n5)c4)nc4cn[nH]c34)cc2)CC1 [Example #149, 5-(3-(2H-tetrazol-5-yl)phenyl)-N-(4-(4-methylpiperazin-1-yl)phenyl)-1H-pyrazolo[4,3-d]pyrimidin-7-amine]"
7,6.00 to 7.00,"CN(C)CCNc1nc(C(=O)c2ccccc2)nc2cn[nH]c12 [Example #150, (7-((2-(dimethylamino)ethyl)amino)-1H-pyrazolo[4,3-d]pyrimidin-5-yl)(phenyl)methanone]"
8,> 8.00,"CN1CCC(CNc2nc(C(=O)c3ccccc3)nc3cn[nH]c23)CC1 [Example #151, (7-(((1-methylpiperidin-4-yl)methyl)amino)-1H-pyrazolo[4,3-d]pyrimidin-5-yl)(phenyl)methanone]"
9,7.00 to 8.00,"CN1CCN(c2ccc(Nc3nc(C(=O)c4ccccc4)nc4cn[nH]c34)cc2)CC1 [Example #152, (7-((4-(4-methylpiperazin-1-yl)phenyl)amino)-1H-pyrazolo[4,3-d]pyrimidin-5-yl)(phenyl)methanone]"
10,6.00 to 7.00,"COc1ccc(Nc2nc(C(=O)c3ccccc3)nc3cn[nH]c23)cc1OC [Example #153, (7-((3,4-dimethoxyphenyl)amino)-1H-pyrazolo[4,3-d]pyrimidin-5-yl)(phenyl)methanone]"
11,7.00 to 8.00,"O=C1CSc2ccc(Nc3nc(-c4cccs4)nc4cn[nH]c34)cc2N1 [Example #165, 6-((5-(thiophen-2-yl)-1H-pyrazolo[4,3-d]pyrimidin-7-yl)amino)-2H-benzo[b][1,4]thiazin-3(4H)-one]"
12,7.00 to 8.00,"CC(C)(C#N)c1ccc(Nc2nc(-c3cccs3)nc3cn[nH]c23)cc1 [Example #167, 2-methyl-2-(4-((5-(thiophen-2-yl)-1H-pyrazolo[4,3-d]pyrimidin-7-yl)amino)phenyl)propanenitrile]"
13,7.00 to 8.00,"COc1ccc(-c2nc(Nc3ccc(N4CCSCC4)cc3)c3[nH]ncc3n2)cc1 [Example #168, 5-(4-methoxyphenyl)-N-(4-thiomorpholinophenyl)-1H-pyrazolo[4,3-d]pyrimidin-7-amine]"
14,6.00 to 7.00,"CN1CCN(c2ccc(Nc3nc(-c4cccc(OCC(=O)O)c4)nc4cn[nH]c34)cc2)CC1 [Example #174, 2-(3-(7-((4-(4-methylpiperazin-1-yl)phenyl)amino)-1H-pyrazolo[4,3-d]pyrimidin-5-yl)phenoxy)acetic acid]"
15,7.00 to 8.00,"CN1CCN(c2ccc(Nc3nc(-c4cccc(CC(=O)O)c4)nc4cn[nH]c34)cc2)CC1 [Example #176, 2-(3-(7-((4-(4-methylpiperazin-1-yl)phenyl)amino)-1H-pyrazolo[4,3-d]pyrimidin-5-yl)phenyl)acetic acid]"
16,7.00 to 8.00,"CN1CCN(c2ccc(Nc3nc(-c4cccc(C(=O)O)n4)nc4cn[nH]c34)cc2)CC1 [Example #177, 6-(7-((4-(4-methylpiperazin-1-yl)phenyl)amino)-1H-pyrazolo[4,3-d]pyrimidin-5-yl)picolinic acid]"

row,pKi,Structure (SMILES)
1,6.00 to 7.00,"FS(F)(F)(F)(F)c1ccc(Nc2nc(-c3ccsc3)nc3cn[nH]c23)cc1 [Example #178, N-(4-(pentafluorosulfanyl)phenyl)-5-(thiophen-3-yl)-1H-pyrazolo[4,3-d]pyrimidin-7-amine]"
2,7.00 to 8.00,"Cc1ccc(CNCc2cccc(-c3nc(Nc4ccc(N5CCN(C)CC5)cc4)c4[nH]ncc4n3)c2)cc1 [Example #180, 5-(3-(((4-methylbenzyl)amino)methyl)phenyl)-N-(4-(4-methylpiperazin-1-yl)phenyl)-1H-pyrazolo[4,3-d]pyrimidin-7-amine]"
3,7.00 to 8.00,"CN(C)CCCOc1cccc(-c2nc(Nc3ccc(N4CCN(C)CC4)cc3)c3[nH]ncc3n2)c1 [Example #181, 5-(3-(3-(dimethylamino)propoxy)phenyl)-N-(4-(4-methylpiperazin-1-yl)phenyl)-1H-pyrazolo[4,3-d]pyrimidin-7-amine]"
4,> 8.00,"CC(=O)N1CCN(c2ccc(Nc3nc(-c4cccc(-c5nn[nH]n5)c4)nc4cn[nH]c34)cc2)CC1 [Example #192, 1-(4-(4-((5-(3-(2H-tetrazol-5-yl)phenyl)-1H-pyrazolo[4,3-d]pyrimidin-7-yl)amino)phenyl)piperazin-1-yl)ethan-1-one]"
5,7.00 to 8.00,"COC(=O)c1cccc(-c2nc(Nc3ccc4c(c3)NC(=O)CC4)c3[nH]ncc3n2)c1 [Example #210, methyl 3-(7-((2-oxo-1,2,3,4-tetrahydroquinolin-7-yl)amino)-1H-pyrazolo[4,3-d]pyrimidin-5-yl)benzoate]"
6,7.00 to 8.00,"COC(=O)c1cccc(-c2nc(Nc3ccc4c(c3)NC(=O)CO4)c3[nH]ncc3n2)c1 [Example #211, methyl 3-(7-((3-oxo-3,4-dihydro-2H-benzo[b][1,4]oxazin-6-yl)amino)-1H-pyrazolo[4,3-d]pyrimidin-5-yl)benzoate]"
7,7.00 to 8.00,"O=C1COc2ccc(Nc3nc(-c4cccc(C(=O)O)c4)nc4cn[nH]c34)cc2N1 [Example #212, 3-(7-((3-oxo-3,4-dihydro-2H-benzo[b][1,4]oxazin-6-yl)amino)-1H-pyrazolo[4,3-d]pyrimidin-5-yl)benzoic acid]"
8,> 8.00,"COC(=O)c1ccc(-c2nc(Nc3ccc(N4CCN(C)CC4)cc3)c3[nH]ncc3n2)cc1 [Example #213, methyl 4-(7-((4-(4-methylpiperazin-1-yl)phenyl)amino)-1H-pyrazolo[4,3-d]pyrimidin-5-yl)benzoate]"
9,6.00 to 7.00,"COC(=O)c1ccc(-c2nc(Nc3ccc4c(c3)NC(=O)CC4)c3[nH]ncc3n2)cc1 [Example #215, methyl 4-(7-((2-oxo-1,2,3,4-tetrahydroquinolin-7-yl)amino)-1H-pyrazolo[4,3-d]pyrimidin-5-yl)benzoate]"
10,7.00 to 8.00,"COC(=O)c1cccc(-c2nc(Nc3ccc4c(c3)NC(=O)CS4)c3[nH]ncc3n2)c1 [Example #216, methyl 3-(7-((3-oxo-3,4-dihydro-2H-benzo[b][1,4]thiazin-6-yl)amino)-1H-pyrazolo[4,3-d]pyrimidin-5-yl)benzoate]"
11,6.00 to 7.00,"COC(=O)c1cccc(-c2nc(Nc3ccc4c(c3)NC(=O)CCC4)c3[nH]ncc3n2)c1 [Example #217, methyl 3-(7-((2-oxo-2,3,4,5-tetrahydro-1H-benzo[b]azepin-8-yl)amino)-1H-pyrazolo[4,3-d]pyrimidin-5-yl)benzoate]"
12,6.00 to 7.00,"COc1ccc(Nc2nc(-c3cccc(S(F)(F)(F)(F)F)c3)nc3cn[nH]c23)cc1OC [Example #219, N-(3,4-dimethoxyphenyl)-5-(3-(pentafluorosulfanyl)phenyl)-1H-pyrazolo[4,3-d]pyrimidin-7-amine]"
13,7.00 to 8.00,"FS(F)(F)(F)(F)c1cccc(-c2nc(Nc3ccc(N4CCOCC4)cc3)c3[nH]ncc3n2)c1 [Example #220, 5-(3-(pentafluorosulfanyl)phenyl)-N-(4-morpholinophenyl)-1H-pyrazolo[4,3-d]pyrimidin-7-amine]"
14,7.00 to 8.00,"CN1CCN(c2ccc(Nc3nc(-c4cccc(S(F)(F)(F)(F)F)c4)nc4cn[nH]c34)cc2)CC1 [Example #221, N-(4-(4-methylpiperazin-1-yl)phenyl)-5-(3-(pentafluorosulfanyl)phenyl)-1H-pyrazolo[4,3-d]pyrimidin-7-amine]"
15,6.00 to 7.00,"O=C1CCc2ccc(Nc3nc(-c4cccc(S(F)(F)(F)(F)F)c4)nc4cn[nH]c34)cc2N1 [Example #222, 7-((5-(3-(pentafluorosulfanyl)phenyl)-1H-pyrazolo[4,3-d]pyrimidin-7-yl)amino)-3,4-dihydroquinolin-2(1H)-one]"
16,7.00 to 8.00,"COc1ccc(Nc2nc(-c3cccc(SC)c3)nc3cn[nH]c23)cc1OC [Example #223, N-(3,4-dimethoxyphenyl)-5-(3-(methylthio)phenyl)-1H-pyrazolo[4,3-d]pyrimidin-7-amine]"
